# According to ChEMBL document CHEMBL1201861, “Genomics of Drug Sensitity in Cancer screening data, Wellcome Trust Sanger Institute”:
# Experiments:
# Format in all cases: functional, cell-based
# [1] = test system: SAOS-2; test: cells; conditions: Homo sapiens;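 note: growth inhibition of human Saos-2 cells determined by a cell viability assay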
# Description: SANGER: Inhibition of human Saos-2 cell growth in a cell viability assay.
# [2] = test system: SW48; test: cells; conditions: Homo sapiens;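 note: growth inhibition of SW48 cells, read out with a cell viability assay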
# Description: SANGER: Inhibition of human SW48 cell growth in a cell viability assay.
# [3] = test system: SUP-T1; test: cells; conditions: Homo sapiens;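 note: growth inhibition of human SUP-T1 cells, read out as cell viability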
# Description: SANGER: Inhibition of human SUP-T1 cell growth in a cell viability assay.
# [4] = test system: NCI-H187; test: cells; conditions: Homo sapiens;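 note: growth inhibition of NCI-H187 cells, read out as cell viability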
# Description: SANGER: Inhibition of human NCI-H187 cell growth in a cell viability assay.
# [5] = test system: K052; test: cells; conditions: Homo sapiens;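 note: Read-out from a cell viability assay, IC50 reflecting suppression of K052 cell growth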
# Description: SANGER: Inhibition of human K052 cell growth in a cell viability assay.
# [6] = test system: T-24; test: cells; conditions: Homo sapiens;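 note: growth inhibition of T-24 cells, read out with a cell viability assay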
# Description: SANGER: Inhibition of human T-24 cell growth in a cell viability assay.
# [7] = test system: HCC1569; test: cells; conditions: Homo sapiens;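 note: growth inhibition of human HCC1569 cells, read out with a cell viability assay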
# Description: SANGER: Inhibition of human HCC1569 cell growth in a cell viability assay.
# [8] = test system: CAL-72; test: cells; conditions: Homo sapiens;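 note: cell viability assay measuring inhibition of proliferation in the CAL-72 cell line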
# Description: SANGER: Inhibition of human CAL-72 cell growth in a cell viability assay.
# [9] = test system: MKN-1; test: cells; conditions: Homo sapiens;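 note: growth inhibition of human MKN1 cells, read out by a cell viability measurement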
# Description: SANGER: Inhibition of human MKN1 cell growth in a cell viability assay.
# [10] = test system: HSC-3; test: cells; conditions: Homo sapiens
# Description: SANGER: Inhibition of human HSC-3 cell growth in a cell viability assay.
# [11] = test system: KYSE-410; test: cells; conditions: Homo sapiens;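 note: growth inhibition of KYSE-410 cells, measured through a cell viability readout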
# Description: SANGER: Inhibition of human KYSE-410 cell growth in a cell viability assay.
# [12] = test system: COLO-678; test: cells; conditions: Homo sapiens
# Description: SANGER: Inhibition of human COLO-678 cell growth in a cell viability assay.
# [13] = test system: HGC-27; test: cells; conditions: Homo sapiens;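 note: growth inhibition of human HGC-27 cells, read out in a cell viability assay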
# Description: SANGER: Inhibition of human HGC-27 cell growth in a cell viability assay.
# [14] = test system: KU-19-19; test: cells; conditions: Homo sapiens
# Description: SANGER: Inhibition of human KU-19-19 cell growth in a cell viability assay.
# [15] = test system: GDM-1; test: cells; conditions: Homo sapiens;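 note: cell viability readout used to measure growth inhibition of human GDM-1 cells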
# Description: SANGER: Inhibition of human GDM-1 cell growth in a cell viability assay.
# [16] = test system: BC-3; test: cells; conditions: Homo sapiens;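 note: cell viability assay measuring growth inhibition of human BC-3 cells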
# Description: SANGER: Inhibition of human BC-3 cell growth in a cell viability assay.
# [17] = test system: NCI-H1993; test: cells; conditions: Homo sapiens;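 note: growth inhibition of the cancer cell line, assessed with a cell viability assay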
# Description: SANGER: Inhibition of human NCI-H1993 cell growth in a cell viability assay.
# [18] = test system: SW1417; test: cells; conditions: Homo sapiens;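 note: growth inhibition of human SW1417 cells, read out with a cell viability assay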
# Description: SANGER: Inhibition of human SW1417 cell growth in a cell viability assay.
# [19] = test system: SNU-387; test: cells; conditions: Homo sapiens
# Description: SANGER: Inhibition of human SNU-387 cell growth in a cell viability assay.
# [20] = test system: SJRH30; test: cells; conditions: Homo sapiens;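 note: growth inhibition of human SJRH30 cells, read out with a cell viability assay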
# Description: SANGER: Inhibition of human SJRH30 cell growth in a cell viability assay.
# [21] = test system: EVSA-T; test: cells; conditions: Homo sapiens;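 note: growth inhibition of EVSA-T cells, read out with a cell viability assay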
# Description: SANGER: Inhibition of human EVSA-T cell growth in a cell viability assay.
# [22] = test system: TYK-nu; test: cells; conditions: Homo sapiens;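 note: growth inhibition of human TYK-nu cells, read out by a cell viability assay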
# Description: SANGER: Inhibition of human TYK-nu cell growth in a cell viability assay.
# [23] = test system: HCC1419; test: cells; conditions: Homo sapiens;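 note: growth inhibition of human HCC1419 cells, read out as cell viability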
# Description: SANGER: Inhibition of human HCC1419 cell growth in a cell viability assay.
# [24] = test system: DV-90; test: cells; conditions: Homo sapiens;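 note: Read-out is a viability assay, with IC50 reflecting the drop in DV-90 cell growth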
# Description: SANGER: Inhibition of human DV-90 cell growth in a cell viability assay.
# [25] = test system: HT-3; test: cells; conditions: Homo sapiens;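 note: growth inhibition measured with a cell viability readout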
# Description: SANGER: Inhibition of human HT-3 cell growth in a cell viability assay.
# [26] = test system: L-540; test: cells; conditions: Homo sapiens;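 note: growth inhibition of the human L-540 cell line, read out with a viability assay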
# Description: SANGER: Inhibition of human L-540 cell growth in a cell viability assay.
# [27] = test system: KYSE-520 cell line; test: cells; conditions: Homo sapiens;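 note: growth inhibition of human KYSE-520 cells, read out with a viability assay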
# Description: SANGER: Inhibition of human KYSE-520 cell growth in a cell viability assay.
# [28] = test system: NCI-H520; test: cells; conditions: Homo sapiens;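 note: growth inhibition of NCI-H520 cells, measured by a cell viability assay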
# Description: SANGER: Inhibition of human NCI-H520 cell growth in a cell viability assay.
# [29] = test system: NCI-H2009; test: cells; conditions: Homo sapiens;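 note: cell viability assay measuring inhibition of NCI-H2009 cell growth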
# Description: SANGER: Inhibition of human NCI-H2009 cell growth in a cell viability assay.
# [30] = test system: 639-V; test: cells; conditions: Homo sapiens;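 note: growth inhibition of 639-V cells, read out with a cell viability assay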
# Description: SANGER: Inhibition of human 639-V cell growth in a cell viability assay.
# [31] = test system: BC1 cell line; test: SANGER: Inhibition of human BC-1 cell growth in a cell viability assay.
# [32] = test system: JIYOYE; test: cells; conditions: Homo sapiens
# Description: SANGER: Inhibition of human JiyoyeP-2003 cell growth in a cell viability assay.
# [33] = test system: ST486; test: SANGER: Inhibition of human ST486 cell growth in a cell viability assay.
# [34] = test system: HT55; test: cells; conditions: Homo sapiens;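 note: cell viability readout measuring growth inhibition of human HT55 cells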
# Description: SANGER: Inhibition of human HT55 cell growth in a cell viability assay.
# [35] = test system: NCI-H292; test: cells; conditions: Homo sapiens;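 note: growth inhibition of NCI-H292 cells, read out with a cell viability assay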
# Description: SANGER: Inhibition of human NCI-H292 cell growth in a cell viability assay.
# [36] = test system: GCT; test: cells; conditions: Homo sapiens;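 note: GCT cell line proliferation inhibition, read out with a cell viability assay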
# Description: SANGER: Inhibition of human GCT cell growth in a cell viability assay.
# [37] = test system: SCC-3; test: cells; conditions: Homo sapiens;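 note: cell viability assay measuring inhibition of SCC-3 cell growth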
# Description: SANGER: Inhibition of human SCC-3 cell growth in a cell viability assay.
# [38] = test system: OE33; test: cells; conditions: Homo sapiens;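 note: growth inhibition of human OE33 cells, measured by a cell viability assay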
# Description: SANGER: Inhibition of human OE33 cell growth in a cell viability assay.
# [39] = test system: SW780; test: cells; conditions: Homo sapiens;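 note: growth inhibition of the cells, read out with a cell viability assay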
# Description: SANGER: Inhibition of human SW780 cell growth in a cell viability assay.
# [40] = test system: U-118-MG; test: cells; conditions: Homo sapiens
# Description: SANGER: Inhibition of human U-118-MG cell growth in a cell viability assay.
# [41] = test system: C32; test: cells; conditions: Homo sapiens;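 note: cell viability assay, with IC50 reflecting inhibition of C32 cell growth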
# Description: SANGER: Inhibition of human C32 cell growth in a cell viability assay.
# [42] = test system: KYSE-510; test: cells; conditions: Homo sapiens;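 note: cell viability readout used to measure how strongly growth of the cell line is suppressed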
# Description: SANGER: Inhibition of human KYSE-510 cell growth in a cell viability assay.
# [43] = test system: TT; test: cells; conditions: Homo sapiens
# Description: SANGER: Inhibition of human TT cell growth in a cell viability assay.
# [44] = test system: SCC-4; test: cells; conditions: Homo sapiens;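 note: growth inhibition of human SCC-4 cells, read out as cell viability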
# Description: SANGER: Inhibition of human SCC-4 cell growth in a cell viability assay.
# [45] = test system: SNU-C1; test: cells; conditions: Homo sapiens;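 note: growth inhibition of SNU-C1 human cells, read out by a cell viability assay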
# Description: SANGER: Inhibition of human SNU-C1 cell growth in a cell viability assay.
# [46] = test system: SF-295; test: cells; conditions: Homo sapiens;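 note: growth inhibition of SF-295 cells, read out with a cell viability assay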
# Description: SANGER: Inhibition of human SF295 cell growth in a cell viability assay.
# [47] = test system: NCI-H2227; test: cells; conditions: Homo sapiens;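 note: growth inhibition of the human cell line, read out with a cell viability assay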
# Description: SANGER: Inhibition of human NCI-H2227 cell growth in a cell viability assay.
# [48] = test system: SNU-16; test: cells; conditions: Homo sapiens;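 note: growth inhibition of human SNU-16 cells, determined with a cell viability readout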
# Description: SANGER: Inhibition of human NCI-SNU-16 cell growth in a cell viability assay.
# [49] = test system: AN3-CA; test: cells; conditions: Homo sapiens;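 note: growth inhibition of human AN3-CA cells measured by a cell viability assay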
# Description: SANGER: Inhibition of human AN3-CA cell growth in a cell viability assay.
# [50] = test system: A-427; test: cells; conditions: Homo sapiens;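 note: growth inhibition of human A-427 cells, read out by a cell viability assay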
# Description: SANGER: Inhibition of human A427 cell growth in a cell viability assay.
# [51] = test system: MC-IXC; test: cells; conditions: Homo sapiens;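 note: growth inhibition of MC-IXC cells, read out with a cell viability assay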
# Description: SANGER: Inhibition of human MC-IXC cell growth in a cell viability assay.
# [52] = test system: HOP-92; test: cells; conditions: Homo sapiens;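 note: cell viability readout, with IC50 reflecting inhibition of HOP-92 cell growth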
# Description: SANGER: Inhibition of human HOP-92 cell growth in a cell viability assay.
# [53] = test system: MG-63; test: cells; conditions: Homo sapiens;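 note: growth inhibition of human MG-63 cells, read out with a cell viability assay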
# Description: SANGER: Inhibition of human MG-63 cell growth in a cell viability assay.
# [54] = test system: DBTRG-05MG; test: cells; conditions: Homo sapiens;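 note: cell viability assay measuring growth inhibition of human DBTRG-05MG cells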
# Description: SANGER: Inhibition of human DBTRG-05MG cell growth in a cell viability assay.
# [55] = test system: NCI-H524; test: cells; conditions: Homo sapiens;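 note: growth inhibition of human NCI-H524 cells, read out through a cell viability assay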
# Description: SANGER: Inhibition of human NCI-H524 cell growth in a cell viability assay.
# [56] = test system: NCCIT; test: SANGER: Inhibition of human NCCIT cell growth in a cell viability assay.
# [57] = test system: Daoy; test: cells; conditions: Homo sapiens;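 note: daoy cell growth inhibition, read out as cell viability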
# Description: SANGER: Inhibition of human Daoy cell growth in a cell viability assay.
# [58] = test system: EW-7; test: SANGER: Inhibition of human EW-7 cell growth in a cell viability assay.
# [59] = test system: VM-CUB-1; test: cells; conditions: Homo sapiens;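 note: cell viability assay measuring growth inhibition of the human VM-CUB-1 cell line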
# Description: SANGER: Inhibition of human VM-CUB-1 cell growth in a cell viability assay.
# [60] = test system: A2780; test: cells; conditions: Homo sapiens;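 note: growth inhibition of A2780 cells, read out with a cell viability assay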
# Description: SANGER: Inhibition of human A2780 cell growth in a cell viability assay.
# [61] = test system: NCI-H1522; test: cells; conditions: Homo sapiens;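 note: growth inhibition of NCI-H1522 cells, read out with a cell viability assay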
# Description: SANGER: Inhibition of human NCI-H1522 cell growth in a cell viability assay.
# [62] = test system: LOUCY; test: cells; conditions: Homo sapiens
# Description: SANGER: Inhibition of human LOUCY cell growth in a cell viability assay.
smiles,measurement,setting,value
CCNC(=O)c1noc(-c2cc(C(C)C)c(O)cc2O)c1-c1ccc(CN2CCOCC2)cc1 [LUMINESPIB],IC50,[1],76 nM
same,IC50,[2],40.3 nM
same,IC50,[3],67.6 nM
same,IC50,[4],> 256 nM
same,IC50,[5],171 nM
same,IC50,[6],53.8 nM
same,IC50,[7],36.1 nM
same,IC50,[8],166 nM
same,IC50,[9],49.3 nM
same,IC50,[10],6.41 nM
same,IC50,[11],15.9 nM
same,IC50,[12],> 256 nM
same,IC50,[13],17.6 nM
same,IC50,[14],108 nM
same,IC50,[15],8.4 nM
same,IC50,[16],30.2 nM
same,IC50,[17],> 256 nM
same,IC50,[18],> 256 nM
same,IC50,[19],92.2 nM
same,IC50,[20],94.4 nM
same,IC50,[21],92.7 nM
same,IC50,[22],> 256 nM
same,IC50,[23],95.4 nM
same,IC50,[24],> 256 nM
same,IC50,[25],> 256 nM
same,IC50,[26],> 256 nM
same,IC50,[27],26.1 nM
same,IC50,[28],26.6 nM
same,IC50,[29],27.6 nM
same,IC50,[30],4.85 nM
same,IC50,[31],33.7 nM
same,IC50,[32],33.9 nM
same,IC50,[33],55.3 nM
same,IC50,[34],> 256 nM
same,IC50,[35],17.1 nM
same,IC50,[36],41.6 nM
same,IC50,[37],> 256 nM
same,IC50,[38],42.4 nM
same,IC50,[39],> 256 nM
same,IC50,[40],25.8 nM
same,IC50,[41],> 256 nM
same,IC50,[42],14.4 nM
same,IC50,[43],> 256 nM
same,IC50,[44],28.1 nM
same,IC50,[45],> 256 nM
same,IC50,[46],17.2 nM
same,IC50,[47],> 256 nM
same,IC50,[48],> 256 nM
same,IC50,[49],10.2 nM
same,IC50,[50],13 nM
same,IC50,[51],17.4 nM
same,IC50,[52],77.1 nM
same,IC50,[53],18.7 nM
same,IC50,[54],29.6 nM
same,IC50,[55],> 256 nM
same,IC50,[56],66 nM
same,IC50,[57],6.95 nM
same,IC50,[58],7.54 nM
same,IC50,[59],53.1 nM
same,IC50,[60],17.1 nM
same,IC50,[61],148 nM
same,IC50,[62],5.05 nM
CC(O)(CS(=O)(=O)c1ccc(F)cc1)C(=O)Nc1ccc(C#N)c(C(F)(F)F)c1 (centres undefined) [BICALUTAMIDE],IC50,[1],> 1020 nM
same,IC50,[2],> 1020 nM
same,IC50,[3],> 1020 nM
same,IC50,[4],> 1020 nM
same,IC50,[5],> 1020 nM
same,IC50,[6],> 1020 nM
same,IC50,[7],> 1020 nM
same,IC50,[8],> 1020 nM
same,IC50,[9],> 1020 nM
same,IC50,[10],> 1020 nM
same,IC50,[11],> 1020 nM
same,IC50,[12],> 1020 nM
same,IC50,[13],> 1020 nM
same,IC50,[14],> 1020 nM
same,IC50,[15],> 1020 nM
same,IC50,[16],> 1020 nM
same,IC50,[17],> 1020 nM
same,IC50,[18],> 1020 nM
same,IC50,[19],> 1020 nM
same,IC50,[20],> 1020 nM
same,IC50,[21],> 1020 nM
same,IC50,[22],> 1020 nM
same,IC50,[23],> 1020 nM
same,IC50,[24],> 1020 nM
same,IC50,[25],731 nM
same,IC50,[26],> 1020 nM
same,IC50,[27],> 1020 nM
same,IC50,[28],> 1020 nM
same,IC50,[29],> 1020 nM
same,IC50,[30],> 1020 nM
same,IC50,[31],> 1020 nM
same,IC50,[32],> 1020 nM
same,IC50,[33],> 1020 nM
same,IC50,[34],> 1020 nM
same,IC50,[35],> 1020 nM
same,IC50,[36],> 1020 nM
same,IC50,[37],> 1020 nM
same,IC50,[38],> 1020 nM
same,IC50,[39],> 1020 nM
same,IC50,[40],> 1020 nM
same,IC50,[41],> 1020 nM
same,IC50,[42],> 1020 nM
same,IC50,[43],> 1020 nM
same,IC50,[44],> 1020 nM
same,IC50,[45],> 1020 nM
same,IC50,[46],> 1020 nM
same,IC50,[47],> 1020 nM
same,IC50,[48],> 1020 nM
same,IC50,[49],> 1020 nM
same,IC50,[50],> 1020 nM
same,IC50,[51],> 1020 nM
same,IC50,[52],> 1020 nM
same,IC50,[53],> 1020 nM
same,IC50,[54],> 1020 nM
same,IC50,[55],> 1020 nM
same,IC50,[56],> 1020 nM
same,IC50,[57],> 1020 nM
same,IC50,[58],> 1020 nM
same,IC50,[59],> 1020 nM
same,IC50,[60],> 1020 nM
same,IC50,[61],> 1020 nM
same,IC50,[62],> 1020 nM
